Source: patent US20090004683A1, “Indicator Agent for Noninflammatory Stress Response and Use Thereof” (priority 2004, published 2009)

Tests used:
Type in all cases: in vivo, mouse
[1] = tested on: ACTH; assay: Blood ACTH after IL-18 administration; conditions: C57B/6 mice, 1.5 μg IL-18 intravenously; FIG. 13A
Description: (§1) 1.5 μg of IL-18 prepared by genetic recombination technology was intravenously injected to C57B/6 mice, and thereafter ACTH, FSH and LH levels in blood were examined. […] FIGS. 13B and 13C show FSH and LH levels in plasma collected from mice 1 hour after IL-18 administration. It was shown that the concentrations of FSH and LH in plasma rose with the administration of IL-18.

[2] = tested on: LH; assay: Plasma LH after IL-18 administration; conditions: C57B/6 mice, 1.5 μg IL-18 intravenously, 1 hour after administration; FIG. 13C
Description: as §1

[3] = tested on: FSH; assay: Plasma FSH after IL-18 administration; conditions: C57B/6 mice, 1.5 μg IL-18 intravenously, 1 hour after administration; FIG. 13B
Description: as §1

IL-18: IL-18 prepared by genetic recombination technology
rose: blood ACTH concentration [1] | concentration of LH in plasma [2] | concentration of FSH in plasma [3]
